Data on 19 compounds can be found in patent publication US11504349B2, “Composition for preventing or treating TNF-related diseases, containing novel derivative as active ingredient, and method for inhibiting TNF activity by using same” (ILAB, priority 2017, dated 2022).

Each structure is given as a SMILES string.

A short description of data set [1]: Cytotoxicity (CC50) in LM cells, MTT assay. As to conditions: mouse, LM cells (mouse fibroblasts); 50% cytotoxic concentration. The data set is classed as cell-based. As for the experimental part: (§1) First, the addition of recombinant TNF to mouse fibroblast LM cells induces cell death, and thus, by using the same, the TNF-neutralization bioassay was constructed. In other words, LM cells were pretreated with TNF (20 ng/ml) and the compounds synthesized in the above examples at various concentrations (5×10^4 cells/well), and a sensitizer actinomycin D ([…]) was added, and cultured in a CO2 incubator for 24 hours, and then the MTT assay was carried out. At this time, 10 μl of MTT (5 mg/ml stock) was added, reacted for 4 hours, and then dissolved in DMSO to measure the absorbance at 570 nm. First, the TNF cell death inhibition/neutralization action of TNF-target expected compounds at single concentration (50 or 10 μM) was measured. Second, IC50 values were determined by treating with the compounds having an excellent effect at different concentrations. The % inhibition of TNF was calculated using the following formula: % inhibition of TNF=(OD value of a group treated with TNF and compound−OD value of TNF treated group/(OD value of TNF untreated group−OD value of TNF treated group)×100.
(§2) IC50 values were statistically analyzed using Prism 6 (GraphPad) (IC50: 50% inhibitory concentration, CC50: 50% cytotoxic concentration).
(In general: Tetrazolium dyes change colour on reduction, which living cells bring about.)

Data set [2] addresses T1, TNF (Homo sapiens, UniProt P01375). The data set can be described thus: TNF-neutralization bioassay: TNF-induced cell death of LM cells (MTT). The format is cell-based. The settings on record: for inhibition at 50 µM: compound 50 μM, TNF 20 ng/ml, actinomycin D, LM cells, 24 hours; for IC50: inhibition of TNF-induced LM cell death. The protocol: as §1, §2
In data set [3] the test system is DBA/1 mice. The data set can be described thus: CIA mouse model, alone and in combination with methotrexate. The data set is classed as in vivo. As to conditions: Example 61 10 mpk PO once a day, MTX 5 mpk three times a week, to Day 73. The source says:
A 1:1 mixture of collagen type 2 and CFA was intradermally (ID) injected into the base of the tail of DBA/1 mice. Two weeks after the primary immunization, a 1:1 mixture of bovine collagen type 2 and IFA (incomplete Freund's adjuvant) was intradermally (ID) injected into the base of the tail to prepare the rheumatoid arthritis animal model. The thus prepared mice were divided into […], i.e., a positive control group (MTX 5 mpk treated group: 10 mice), a group treated with the compound of Example 61 alone (10 mpk treated group: 9 mice), a group treated with MTX and the compound of Example 61 (each 5 mpk and 10 mpk; 9 mice), and a group treated with vehicle (a group treated with 0.05% CMC diluted in distilled water; 15 mice). […]
The severity of arthritis was determined by ascertaining the mean score of arthritis according to the following standard score in the forefoot and hindfoot twice a week from Day 0 to Day 73 after the primary immunization: 0=normal foot, 1=inflammation and swelling of one toe, 2=inflammation and swelling of more than one toe, but not all of the toes have inflammation and swelling, or weak swelling of all toes, 3=inflammation and swelling of all toes, and 4=severe inflammation and swelling or occlusion of foot.

For data set [4], the target named is T1, TNF. Put plainly: SPR (Biacore T200) direct binding to immobilized TNF. As to conditions: FIG. 2d. As for the experimental part:
The binding kinetics of TNF and 4-benzopyranone derivative compounds was measured by Surface Plasmon Resonance (SPR) method. First, based on the results of pH scouting (10 mM acetate buffer, pH 4.0, 4.5, 5.0, and 5.5), the appropriate buffer pH was determined, and then the recombinant TNF was immobilized on the CM5 chip (4000-5000 RU). In order to correct an effect of DMSO, a solvent correction standard was then prepared, and DMSO was added to the HBS-EP+ buffer (GE) in an amount of 5%. Then, the 4-benzopyranone derivative compounds were prepared depending on concentration, flowed into the chip (20 μl/min, 500 s), and dissolved (500 s), and the results of sensorgram were analyzed by a dedicated program to determine the affinity value (KD). At this time, the running buffer was HBS-EP+ buffer (GE), the regeneration buffer was 10 mM glycine (pH 2.5), and Biacore T200 (GE) was used as an analyzer.
In general terms: SPR reads the build-up and loss of mass on a sensor chip optically.

Data set [5] addresses T2, biotinylated TNF (Homo sapiens, UniProt P01375).
T2 construct: purchased R&D Systems NFTAO
Put plainly: Flow cytometry: binding of biotinylated TNF to Raw 264.7 cells. The format is cell-based, mouse. As to conditions: compound 800, 200, 5 μM, FACS, FIG. 3a. As for the experimental part: First, macrophage Raw 264.7 cells were prepared (4×10^6 cells/ml), and the biotinylated TNF alone or in combination with the 4-benzopyranone derivative compound (800, 200, 5 μM) was added to the cells and reacted (30 min, 4° C.). 10 μl of avidin-FITC reagent was then added and reacted in the dark (30 min, 4° C.). After washing with RDF1 buffer, FACS analysis was carried out (BD Canto). Human TNF-alpha Biotinylated Fluorokine Flow Cytometry Kit (Cat #: NFTAO) of R&D Systems was used in the experiment.

T1 sequence (P01375 77-233 limits assumed): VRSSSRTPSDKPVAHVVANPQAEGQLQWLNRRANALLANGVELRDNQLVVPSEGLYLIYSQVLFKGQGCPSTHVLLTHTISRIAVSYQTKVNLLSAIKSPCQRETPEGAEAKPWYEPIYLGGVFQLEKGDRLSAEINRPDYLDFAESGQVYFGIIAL
T2 sequence (P01375 77-233 limits assumed): as above

Usually melting point stands for the temperature, or range, at which the solid turns liquid. Usually CC50 stands for the concentration giving 50% cytotoxicity. Lower therefore signals harm at low concentration. A word on the inhibition: it is the percentage by which the read-out fell short of the control. The IC50 is the concentration that inhibits the measured activity by half. A high value points to weaker potency. Turning to `O=C(O)c1c(-c2cc(F)cc(F)c2)oc2ccc(Cl)cc2c1=O` [Example 50, 2-(3,5-difluorophenyl)-3-carboxy-6-chloro-(4H)-4-benzopyranone], the melting point is 207 to 209 °C. This compound also displayed a CC50 at 24 h in data set [1] of 36 µM. In data set [2], this compound yielded an inhibition at 50 µM of 100% and an IC50 of 5.1 µM.
In turn, `COc1ccc(-c2oc3ccc(Br)cc3c(=O)c2C(=O)O)cc1OC` [Example 40, 2-(3,4-dimethoxyphenyl)-3-carboxy-6-bromo-(4H)-4-benzopyranone] displayed a melting point of 242 to 243 °C. In data set [1], this compound had a half-maximal cytotoxic concentration (CC50) at 24 h of over 50 µM. In data set [2], this compound gave an inhibition at 50 µM of 100% and an IC50 of 122 µM.
`O=C(O)c1c(-c2cc(F)cc(F)c2)oc2ccccc2c1=O` [Example 17, 2-(3,5-difluorophenyl)-3-carboxy-(4H)-4-benzopyranone] had a melting point of 208 to 209 °C. The CC50 at 24 h in data set [1] is over 50 µM. In data set [2], this compound gave an inhibition at 50 µM of 71% and an IC50 of 2.5 µM.
As for `O=C(O)c1c(-c2ccc(Cl)cc2)oc2ccc(Cl)cc2c1=O` [Example 71, 2-(4-chlorophenyl)-3-carboxy-6-chloro-(4H)-4-benzopyranone], the melting point was in the range of 227 to 228 °C. This compound also returned a CC50 at 24 h in data set [1] of 36 µM. Also, in data set [2], at 50 µM the inhibition was 97.9% and half-maximal inhibition (IC50) required 3.3 µM.
In the case of `CN(Cc1cnc2nc(N)nc(N)c2n1)c1ccc(C(=O)N[C@@H](CCC(=O)O)C(=O)O)cc1` [MTX, methotrexate, reference compound], in data set [3], the “therapeutic effect on arthritis (mean arthritis score)” value was “therapeutic effect on arthritis was shown”.
The compound `O=C(O)c1c(-c2cccc(F)c2)oc2ccc(Cl)cc2c1=O` [Example 45, 2-(3-fluorophenyl)-3-carboxy-6-chloro-(4H)-4-benzopyranone] came in with a melting point of 216 to 217 °C. The same compound gave a half-maximal cytotoxic concentration (CC50) at 24 h in data set [1] of 42 µM. In data set [2], the inhibition at 50 µM was 88.4% and the 50% inhibitory concentration (IC50) was 18.5 µM.
`O=C(O)c1c(-c2cccc(F)c2)oc2ccccc2c1=O` [Example 16, 2-(3-fluorophenyl)-3-carboxy-(4H)-4-benzopyranone]: the melting point was in the range of 193 to 196 °C. This compound also returned a CC50 at 24 h in data set [1] of over 50 µM. In data set [2], 50 µM produced 70.2% inhibition and the IC50 was 16.8 µM.
Regarding `O=C(O)c1c(-c2cccc(F)c2F)oc2ccc(Cl)cc2c1=O` [Example 56, 2-(2,3-difluorophenyl)-3-carboxy-6-chloro-(4H)-4-benzopyranone], the melting point is at least 120 °C. Besides, the midpoint of cytotoxicity in data set [1], the CC50 at 24 h, lay at 49 µM. In data set [2], 50 µM produced 100% inhibition and the IC50 was 16.4 µM.
Consider `Cc1cccc(-c2oc3ccc(Br)cc3c(=O)c2C(=O)O)c1` [Example 30, 2-(3-methylphenyl)-3-carboxy-6-bromo-(4H)-4-benzopyranone], for which the melting point fell in the range of 208 to 210 °C. Besides, the “binding to TNF” value in data set [4] was “did not bind to TNF”. This compound gave an inhibition at 50 µM in data set [2] of 7.4%. For the same compound, the “inhibitory activity against TNF-cell binding” value in data set [5] is recorded as “did not inhibit the cell binding of TNF at all”.
On to `O=C(O)c1c(-c2ccco2)oc2ccc(Cl)cc2c1=O` [Example 23, 2-(2-furanyl)-3-carboxy-6-chloro-(4H)-4-benzopyranone], for which the melting point was in the range of 196 to 198 °C. The compound further yielded a CC50 at 24 h in data set [1] of over 50 µM. In data set [2], this compound showed an inhibition at 50 µM of 70.1% and an IC50 of 2.7 µM.
Regarding `O=C(O)c1c(-c2cccc(F)c2F)oc2cc(Cl)ccc2c1=O` [Example 55, 2-(2,3-difluorophenyl)-3-carboxy-7-chloro-(4H)-4-benzopyranone], the melting point is at least 220 °C. The 50% cytotoxic concentration (CC50) at 24 h in data set [1] turned out to be 25 µM. For the same compound, in data set [2], the inhibition at 50 µM was 100% and it took 33.6 µM to reach half-maximal inhibition (IC50).
The compound `O=C(O)c1c(-c2cc(F)ccc2F)oc2ccc(Cl)cc2c1=O` [Example 62, 2-(2,5-difluorophenyl)-3-carboxy-6-chloro-(4H)-4-benzopyranone] yielded a melting point of 168 to 170 °C. Besides, it took 17 µM to reach half-maximal cytotoxicity in data set [1] (CC50 at 24 h). In data set [2], this compound showed an inhibition at 50 µM of 100% and an IC50 of 3.8 µM.
The like results for `O=C(O)c1c(-c2cccc(F)c2)oc2cc(Cl)ccc2c1=O` [Example 44, 2-(3-fluorophenyl)-3-carboxy-7-chloro-(4H)-4-benzopyranone] were, in that order, 160 to 163 °C, over 50 µM, 93.2% and 45.6 µM.
As to `O=C(O)c1c(-c2cc(F)ccc2F)oc2ccc(Br)cc2c1=O` [Example 63, 2-(2,5-difluorophenyl)-3-carboxy-6-bromo-(4H)-4-benzopyranone], the melting point lay in the range of 152 to 153 °C. In addition, it took 36 µM to reach half-maximal cytotoxicity in data set [1] (CC50 at 24 h). Moreover, in data set [2], the inhibition at 50 µM was determined as 100% and the IC50 worked out at 36.9 µM.
Turning to `O=C(O)c1c(-c2cc(F)cc(F)c2)oc2ccc(Br)cc2c1=O` [Example 51, 2-(3,5-difluorophenyl)-3-carboxy-6-bromo-(4H)-4-benzopyranone], the melting point lay within 216 to 218 °C. This compound also came in with a CC50 at 24 h in data set [1] of 13 µM. In data set [2], this compound came in with an inhibition at 50 µM of 100% and an IC50 of 4.5 µM. Besides, in data set [5], the “inhibitory activity against TNF-cell binding” value is given as “moderate inhibitory activity”.
Compound `O=C(O)c1c(-c2ccco2)oc2ccc(Br)cc2c1=O` [Example 24, 2-(2-furanyl)-3-carboxy-6-bromo-(4H)-4-benzopyranone] registered a melting point of 209 to 211 °C. This compound also yielded a CC50 at 24 h in data set [1] of over 50 µM. In data set [2], this compound yielded an inhibition at 50 µM of 76.3% and an IC50 of 2.5 µM.
The like results for `COc1cccc2c(=O)c(C(=O)O)c(-c3ccc(Cl)cc3)oc12` [Example 74, 2-(4-chlorophenyl)-3-carboxy-8-methoxy-(4H)-4-benzopyranone] were, in that order, 238 to 239 °C, over 50 µM, 79% and 52.5 µM.
`O=C(O)c1c(-c2ccc(Cl)cc2)oc2ccc(Br)cc2c1=O` [Example 72, 2-(4-chlorophenyl)-3-carboxy-6-bromo-(4H)-4-benzopyranone] registered a melting point of 211 to 213 °C. In addition, the CC50 at 24 h in data set [1] was over 50 µM. In data set [2], this compound registered an inhibition at 50 µM of 100% and a half-maximal inhibitory concentration (IC50) of 20.8 µM.
Turning to `O=C(O)c1c(-c2cccc(F)c2)oc2ccc(Br)cc2c1=O` [Example 46, 2-(3-fluorophenyl)-3-carboxy-6-bromo-(4H)-4-benzopyranone], the melting point lay in the range of 222 to 223 °C. The compound further came in with a CC50 at 24 h in data set [1] of over 50 µM. In data set [2], this compound gave an inhibition at 50 µM of 100% and an IC50 of 28.9 µM.
